Source: ChEMBL document CHEMBL1140941 (J Med Chem, 2009)
pIC50: −log10 of the molar value. Calls of active or inactive are those of the source. No cut-off for these calls is given here.

How the values were obtained:
[1] = target: T1, Progesterone receptor (Homo sapiens) (UniProt P06401); assay: Agonist activity at gal-PR expressed in african green monkey CV1 cells co-expressing MH100 by luciferase reporter gene assay; format: functional, cell-based; conditions: CV-1
T1 sequence (whole entry): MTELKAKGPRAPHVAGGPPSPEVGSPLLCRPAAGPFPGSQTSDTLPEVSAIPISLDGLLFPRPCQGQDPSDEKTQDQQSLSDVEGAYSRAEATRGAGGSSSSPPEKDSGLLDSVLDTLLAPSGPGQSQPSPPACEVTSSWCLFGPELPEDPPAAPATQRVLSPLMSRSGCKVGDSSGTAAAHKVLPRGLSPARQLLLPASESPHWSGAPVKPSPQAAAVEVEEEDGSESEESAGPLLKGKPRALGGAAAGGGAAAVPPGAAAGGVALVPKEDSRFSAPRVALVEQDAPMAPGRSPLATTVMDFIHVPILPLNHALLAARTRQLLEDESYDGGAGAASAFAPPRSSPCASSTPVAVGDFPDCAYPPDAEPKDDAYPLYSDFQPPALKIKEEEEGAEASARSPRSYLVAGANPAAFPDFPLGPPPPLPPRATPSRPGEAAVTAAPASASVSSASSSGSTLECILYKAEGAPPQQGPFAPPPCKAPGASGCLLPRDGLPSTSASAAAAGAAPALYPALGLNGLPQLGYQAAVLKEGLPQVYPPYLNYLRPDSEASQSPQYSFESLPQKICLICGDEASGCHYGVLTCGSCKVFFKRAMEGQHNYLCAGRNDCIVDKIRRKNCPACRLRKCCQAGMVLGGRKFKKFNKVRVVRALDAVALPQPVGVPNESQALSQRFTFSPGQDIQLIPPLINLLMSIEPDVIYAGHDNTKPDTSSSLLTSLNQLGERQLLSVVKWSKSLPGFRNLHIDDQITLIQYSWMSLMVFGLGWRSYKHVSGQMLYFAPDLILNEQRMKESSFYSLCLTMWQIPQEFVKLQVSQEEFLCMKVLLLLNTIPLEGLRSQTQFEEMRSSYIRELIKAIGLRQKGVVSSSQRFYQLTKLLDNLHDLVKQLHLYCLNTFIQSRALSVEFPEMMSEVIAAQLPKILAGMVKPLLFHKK

[2] = target: Nuclear receptor subfamily 1 group I member 2 (Homo sapiens, UniProt O75469); assay: Agonist activity at SXR expressed in african green monkey CV1 cells co-expressing MH100 up to 10 uM by luciferase reporter gene assay relative to control; format: functional, cell-based; conditions: cv-1
Sequence of Nuclear receptor subfamily 1 group I member 2 (O75469 whole entry): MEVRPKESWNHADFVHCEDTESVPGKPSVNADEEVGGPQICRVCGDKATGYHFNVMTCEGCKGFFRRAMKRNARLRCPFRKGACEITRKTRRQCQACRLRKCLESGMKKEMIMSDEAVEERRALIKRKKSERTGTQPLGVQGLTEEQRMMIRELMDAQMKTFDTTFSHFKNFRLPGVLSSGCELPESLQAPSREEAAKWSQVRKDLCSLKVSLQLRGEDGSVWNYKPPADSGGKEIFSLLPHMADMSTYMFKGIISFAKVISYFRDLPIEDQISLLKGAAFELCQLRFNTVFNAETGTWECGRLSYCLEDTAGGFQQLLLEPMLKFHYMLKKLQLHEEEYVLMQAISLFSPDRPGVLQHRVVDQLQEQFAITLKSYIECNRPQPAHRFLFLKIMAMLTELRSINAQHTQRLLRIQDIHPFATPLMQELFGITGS

Mus musculus [3] = assay: Reduction of plasma triglyceride level in western diet-induced hyperlipidemia LDLR knockout mouse model at 1 mg/kg, po administered for 6 weeks; format: functional; set-up: scale not given: the % may be the effect or the level left
Mus musculus [4] = assay: Reduction of plasma total cholesterol level in C57BL/6 mouse at 10 mg/kg, po administered for 7 days measured after 3 hrs; format: ADME, organism-based; set-up: dose 10 mg/kg, route oral; conditions: in vivo
Androgen receptor = Androgen receptor (Homo sapiens, UniProt P10275); assay: Antagonist activity at gal-AR expressed in african green monkey CV1 cells co-expressing MH100 with GRIP1 co-factor by luciferase reporter gene assay; format: functional, cell-based, CV-1
Sequence of Androgen receptor (P10275 whole entry): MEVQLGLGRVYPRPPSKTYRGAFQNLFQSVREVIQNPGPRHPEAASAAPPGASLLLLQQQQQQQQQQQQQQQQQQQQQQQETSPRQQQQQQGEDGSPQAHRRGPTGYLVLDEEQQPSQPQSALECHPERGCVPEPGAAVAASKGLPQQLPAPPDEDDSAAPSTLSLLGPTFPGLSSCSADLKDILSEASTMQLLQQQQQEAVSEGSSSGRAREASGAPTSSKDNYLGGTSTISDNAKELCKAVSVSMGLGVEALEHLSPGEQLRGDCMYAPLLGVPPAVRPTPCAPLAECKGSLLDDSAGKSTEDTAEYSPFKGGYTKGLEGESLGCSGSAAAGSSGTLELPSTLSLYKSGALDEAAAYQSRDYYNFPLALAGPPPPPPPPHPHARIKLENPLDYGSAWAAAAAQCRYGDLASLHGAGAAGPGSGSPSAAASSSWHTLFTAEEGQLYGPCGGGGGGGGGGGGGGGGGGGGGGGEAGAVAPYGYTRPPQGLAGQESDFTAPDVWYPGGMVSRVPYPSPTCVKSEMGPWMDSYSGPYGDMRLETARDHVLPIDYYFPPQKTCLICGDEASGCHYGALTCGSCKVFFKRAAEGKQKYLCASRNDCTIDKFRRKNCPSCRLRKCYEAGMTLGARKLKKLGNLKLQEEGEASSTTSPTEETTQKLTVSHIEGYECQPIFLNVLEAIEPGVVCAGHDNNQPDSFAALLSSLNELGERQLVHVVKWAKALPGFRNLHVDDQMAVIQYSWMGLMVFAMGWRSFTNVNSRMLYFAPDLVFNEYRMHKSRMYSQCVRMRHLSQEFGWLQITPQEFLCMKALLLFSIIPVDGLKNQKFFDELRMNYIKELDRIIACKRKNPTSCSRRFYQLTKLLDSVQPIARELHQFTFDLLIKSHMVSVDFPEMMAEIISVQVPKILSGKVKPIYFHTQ

[5] = Clearance in CD rat at 3 mg/kg, iv; format: ADME, organism-based; set-up: dose 3 mg/kg, route intravenous; conditions: in vivo
[6] = Half life in CD rat at 3 mg/kg, po; format: ADME, organism-based; set-up: dose 3 mg/kg, route oral; conditions: in vivo
[7] = target: T2, Peroxisome proliferator-activated receptor delta (Homo sapiens) (UniProt Q03181); assay: Antagonist activity at PPARdelta expressed in african green monkey CV1 cells co-expressing MH100 by luciferase reporter gene assay; format: functional, cell-based; conditions: CV-1
T2 sequence (whole entry): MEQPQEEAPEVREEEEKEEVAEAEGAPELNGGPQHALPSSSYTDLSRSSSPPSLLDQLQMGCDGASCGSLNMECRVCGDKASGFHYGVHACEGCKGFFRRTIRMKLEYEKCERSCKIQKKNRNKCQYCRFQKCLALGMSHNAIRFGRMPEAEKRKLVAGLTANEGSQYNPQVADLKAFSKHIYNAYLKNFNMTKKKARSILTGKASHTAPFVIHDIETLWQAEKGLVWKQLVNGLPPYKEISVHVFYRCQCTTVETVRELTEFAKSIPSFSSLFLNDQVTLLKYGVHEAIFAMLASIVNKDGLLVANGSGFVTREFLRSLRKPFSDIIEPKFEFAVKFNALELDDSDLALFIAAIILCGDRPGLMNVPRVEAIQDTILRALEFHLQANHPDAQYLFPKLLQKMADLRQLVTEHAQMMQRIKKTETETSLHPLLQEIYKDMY

[8] = target: T3, Estrogen receptor (Homo sapiens) (UniProt P03372); assay: Agonist activity at gal-ERalpha expressed in african green monkey CV1 cells co-expressing MH100 by luciferase reporter gene assay; format: functional, cell-based; conditions: CV-1
T3 sequence (whole entry): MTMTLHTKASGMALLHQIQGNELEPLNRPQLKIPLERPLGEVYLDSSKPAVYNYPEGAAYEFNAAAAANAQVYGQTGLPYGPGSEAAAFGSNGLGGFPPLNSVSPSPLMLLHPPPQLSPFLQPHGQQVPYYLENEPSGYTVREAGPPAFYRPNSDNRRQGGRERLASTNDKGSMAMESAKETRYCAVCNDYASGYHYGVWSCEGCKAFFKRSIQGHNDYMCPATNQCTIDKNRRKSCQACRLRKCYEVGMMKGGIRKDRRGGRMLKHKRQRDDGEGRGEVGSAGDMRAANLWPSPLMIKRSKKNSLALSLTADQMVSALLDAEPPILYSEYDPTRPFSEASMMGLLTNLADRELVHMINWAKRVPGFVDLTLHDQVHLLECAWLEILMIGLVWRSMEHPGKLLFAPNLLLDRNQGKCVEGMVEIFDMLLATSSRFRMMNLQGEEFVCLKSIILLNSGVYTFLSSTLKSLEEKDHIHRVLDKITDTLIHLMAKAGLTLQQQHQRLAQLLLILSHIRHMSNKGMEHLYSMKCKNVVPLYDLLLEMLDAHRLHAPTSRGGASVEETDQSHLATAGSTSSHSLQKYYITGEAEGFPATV

[9] = target: T4, Peroxisome proliferator-activated receptor gamma (Homo sapiens) (UniProt P37231); assay: Antagonist activity at PPARgamma expressed in african green monkey CV1 cells co-expressing PPRE by luciferase reporter gene assay; format: functional, cell-based; conditions: CV-1
T4 sequence (whole entry): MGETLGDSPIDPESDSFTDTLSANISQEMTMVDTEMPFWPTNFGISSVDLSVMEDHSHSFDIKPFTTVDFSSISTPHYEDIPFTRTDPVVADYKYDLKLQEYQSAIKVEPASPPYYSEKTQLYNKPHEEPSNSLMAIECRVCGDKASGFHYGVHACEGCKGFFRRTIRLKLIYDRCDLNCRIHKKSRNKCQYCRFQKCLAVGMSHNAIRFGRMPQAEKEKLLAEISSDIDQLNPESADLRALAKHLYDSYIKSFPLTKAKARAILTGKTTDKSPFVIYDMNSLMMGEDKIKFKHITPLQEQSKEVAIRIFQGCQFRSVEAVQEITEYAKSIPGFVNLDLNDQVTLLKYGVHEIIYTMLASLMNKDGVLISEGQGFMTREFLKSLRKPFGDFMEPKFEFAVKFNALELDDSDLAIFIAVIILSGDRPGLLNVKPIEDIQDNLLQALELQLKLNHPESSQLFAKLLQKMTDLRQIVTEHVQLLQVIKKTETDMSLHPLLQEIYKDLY

Activity [1]: inactive | Activity [2]: Not Active | Activity (Mus musculus [4]): 78.1 mg/dL | pIC50 (Androgen receptor): 5.00 | clearance [5]: 5.68 mL/min/kg | half-life [6]: 24.6 h | Activity [7]: inactive | Activity [8]: inactive | Activity [9]: inactive
Structure (SMILES): CC(C)OC(=O)C1=CN(C(=O)c2ccc(F)c(F)c2)CC(C)(C)c2c1[nH]c1ccccc21 [TUROFEXORATE ISOPROPYL]
Activity (Mus musculus [3]): 19%
